Experimental data: US8673882B2, “Inhibitors of autotaxin” (University of Tennessee Research Foundation, priority 2011, dated 2014)

Experiments:
Assay type in all cases: biochemical
[1] = biological target: recombinant human ATX (Homo sapiens, UniProt Q13822); assay: Autotaxin inhibition screening assay (FS-3 FRET substrate); settings: 10 μM compound; 2 nM recombinant human ATX; 1 μM FS-3; 2 h, 37° C.; read-out: ATX Activity, % control (10 μM)
Protocol: A 10 μM concentration of the compound is added to 2 nM recombinant human ATX and the FRET (Fluorescence Resonance Energy Transfer) ATX substrate FS-3.
As the first level of screen, 50 μl of recombinant-ATX (2 nM in final concentration) in assay buffer [(Tris 50 mM, NaCl 140 mM, KCl 5 mM, CaCl2 1 mM, MgCl2 1 mM (pH 8.0)] was mixed with 25 μL of FS-3 (Echelon Biosciences, Inc., Salt lake city, Utah), final concentration 1 μM, and 25 μl of test compound was dissolved in assay buffer with 40 μM bovine serum albumin (Sigma, St. Louis, Mo.) in 96-well Costar black-well plate. FS-3 fluorescence at excitation and emission wavelengths of 485 and 538 nm, respectively, were monitored using a FLEXstation II (Molecular Devices, Sunnyvale, Calif.) for 2 h of incubation at 37° C. The differences between time 0 and 120 min were calculated individually and normalized to the vehicle control. The mean±SD of triplicate samples was expressed as percentage of ATX activity. The ATX activity in the presence of the test compounds was compared to vehicle using the […] p<0.05 was considered significant.
The first level of testing was done using 10 μM concentrations of the compounds shown in Tables 1 and 2 added to 2 nM recombinant human ATX and the FRET substrate FS-3. After a 2 h incubation the amount of FS3 hydrolyzed was measured and the residual ATX activity was expressed as a percent of the vehicle-treated sample less the autolysis of FS3 in the absence of ATX.

[2] = biological target: T1, NPP6 (Homo sapiens, UniProt Q6UWR7); assay: NPP-6 inhibition assay (pNPPC substrate); settings: 10 μM compound; 8.3 nM enzyme; 10 μM pNPPC; read-out: NPP6 Activity, % control (10 μM)
T1 sequence (Q6UWR7 23-419): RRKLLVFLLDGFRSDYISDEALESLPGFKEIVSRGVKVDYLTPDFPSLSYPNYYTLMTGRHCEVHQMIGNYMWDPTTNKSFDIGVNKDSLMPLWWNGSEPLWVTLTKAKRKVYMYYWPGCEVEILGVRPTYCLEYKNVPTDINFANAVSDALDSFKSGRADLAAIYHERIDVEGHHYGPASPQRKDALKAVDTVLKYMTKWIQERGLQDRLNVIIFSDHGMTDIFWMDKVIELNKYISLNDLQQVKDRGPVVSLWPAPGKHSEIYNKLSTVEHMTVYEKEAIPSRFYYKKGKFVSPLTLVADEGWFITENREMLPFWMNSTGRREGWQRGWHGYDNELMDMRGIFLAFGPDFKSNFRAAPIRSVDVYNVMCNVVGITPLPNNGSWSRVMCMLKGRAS
Protocol: (§1) NPP6 and NPP7 are the only NPP isoforms other than ATX that are known to utilize lysophospholipid phosphodiesters as substrates. Therefore, the specificity of the chemical compounds of the invention regarding ATX was addressed by determining the activity of NPP6 and NPP7 in the presence and absence of these analogs.
(§2) Inhibition of NPP6 and NPP7 was evaluated using recombinant, purified proteins, the synthetic substrate para-nitrophenylphosphocholine (pNPPC) and a Synergy II plate reader (BioTek, Winooski, Vt.). The final concentration of each enzyme was 8.3 nM and pNPPC was 10 μM. All analogs were tested at single 10 μM concentrations. Absorbance of liberated para-nitrophenol at 405 nm was determined up to 1 hour (where responses were linear) and was normalized to vehicle control.

[3] = biological target: T2, NPP7 (Homo sapiens, UniProt Q6UWV6); assay: NPP-7 inhibition assay (pNPPC substrate); settings: 10 μM compound; 8.3 nM enzyme; 10 μM pNPPC; read-out: NPP7 Activity, % control (10 μM)
T2 sequence (Q6UWV6 22-458): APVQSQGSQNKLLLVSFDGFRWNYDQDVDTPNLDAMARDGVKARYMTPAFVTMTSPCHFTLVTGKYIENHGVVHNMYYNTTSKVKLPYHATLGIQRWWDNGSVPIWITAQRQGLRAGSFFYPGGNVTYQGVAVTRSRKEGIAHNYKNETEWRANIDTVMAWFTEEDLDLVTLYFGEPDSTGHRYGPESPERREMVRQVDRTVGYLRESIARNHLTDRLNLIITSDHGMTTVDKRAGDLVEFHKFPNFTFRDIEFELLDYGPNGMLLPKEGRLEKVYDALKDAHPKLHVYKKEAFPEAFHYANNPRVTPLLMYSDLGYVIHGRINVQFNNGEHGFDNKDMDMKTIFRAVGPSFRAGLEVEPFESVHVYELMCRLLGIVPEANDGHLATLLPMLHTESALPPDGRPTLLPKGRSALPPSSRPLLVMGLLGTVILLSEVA
Protocol: as §1, §2

[4] = biological target: recombinant, purified human ATX (Homo sapiens, UniProt Q13822); assay: Mechanism of autotaxin inhibition (IC50, Ki, Ki′; FS-3 hydrolysis); settings: for IC50: 8.3 nM ATX, 1 μM FS-3, 15 μM BSA; for ATX Mechanism of inhibition: FS-3 0.3 μM to 20 μM, inhibitor 0, 0.5× and 2× IC50
Protocol: The mechanism of inhibition of ATX was determined using recombinant, purified human ATX and FS-3. Final ATX and FS-3 concentrations were 8.3 nM and 1 μM, respectively and the assay buffer with 15 μM fatty acid tree BSA. To calculate IC50, full dose responses were determined for the test compounds. […] Simultaneous non-linear regression, using, WinNonLin® 6.1 (Pharsight, Mountain View, Calif.) was used to assign the mechanism of inhibition. Ki and Ki′ values (the affinity for free enzyme and enzyme substrate complex, respectively) were determined by calculating the lowest averaged percent residuals for each mechanism derived from curve fitting using the Michealis-Menten equations for competitive, uncompetitive, mixed-mode, and non-competitive inhibition.

[5] = affinity for enzyme substrate complex

SMILES | remaining activity at 10 µM [1] [%] | remaining activity at 10 µM [2] [%] | remaining activity at 10 µM [3] [%] | IC50 [4] [µM] | ATX Mechanism of inhibition [4] | Ki [4, 5] [µM] | Ki ([4]; affinity for free enzyme) [µM]
CCCCCCCCCCCCCCCCS(=O)(=O)Nc1ccc(CP(=O)(O)O)cc1 [Compound 4, 4-(Hexadecane-1-sulfonylamino)benzyl phosphonic acid] | 24.1 | 102 | 93.5 | – | – | – | –
CCCCCCCCCCCCCCOc1ccc(CP(=O)(O)O)cc1 [Compound 10, 4-(Tetradecyloxy)benzylphosphonic acid] | – | 102 | 101 | – | – | – | –
CCCCCCCCCCCCC/C=C/c1ccc(CP(=O)(O)O)cc1 [Compound 18, (E)-4-(Pentadec-1-enyl)benzylphosphonic acid] | 18.8 | 104 | 97.7 | – | – | – | –
CCCCCCCCCCCCCCCc1ccc(C(O)P(=O)(O)O)cc1 (stereo not shown) [Compound 37, Hydroxy-4-pentadecylphenylmethylphosphonic acid] | 9.2 | 99.6 | 101 | 0.73 | Mixed | 0.7 | 0.45
CCCCCCCCCCCCCCCc1ccc(C(F)P(=O)(O)O)cc1 (stereo not shown) [Compound 41, Fluoro-4-pentadecylphenylmethyl phosphonic acid] | 42.3 | 101 | 103 | 17.9 | Mixed | 5.54 | 4.97
CCCCCCCCCCCCCCCc1ccc(C(Cl)P(=O)(O)O)cc1 (stereo not shown) [Compound 42, Chloro-4-pentadecylphenylmethyl phosphonic acid] | 118 | 101 | 99.9 | – | – | – | –
CCCCCCCCCCCCCCCc1ccc(C(Br)P(=O)(O)O)cc1 (stereo not shown) [Compound 43, Bromo-4-pentadecylphenylmethyl phosphonic acid] | 60.1 | 99.3 | 99.5 | 10.1 | Mixed | 2.97 | 6.1
CCCCCCCCCCCCCCCc1ccc(COP(=O)(O)O)cc1 [Compound 45, 4-pentadecylbenzyl dihydrogen phosphate] | 85.2 | 101 | 98.8 | – | – | – | –
CCCCCCCCCCCCCCCc1ccc(COP(O)(O)=S)cc1 [Compound 47, O-4-pentadecylbenzyl O,O-dihydrogen phosphorothioate] | – | 98.8 | 92.9 | 1.54 | Mixed | 4.43 | 4.45
CCCCCCCCCCCCCC(=O)Nc1ccc(CP(=O)(O)O)cc1 [Compound S32826, 4-tetradecanoylaminobenzyl phosphonic acid, reference compound] | – | 102 | 101 | – | – | – | –

Now from value to compound:

remaining activity at 10 µM [1] [%] | remaining activity at 10 µM [2] [%] | remaining activity at 10 µM [3] [%] | IC50 [4] [µM] | ATX Mechanism of inhibition [4] | Ki [4, 5] [µM] | Ki ([4]; affinity for free enzyme) [µM] | SMILES
61.3 | 103 | 100 | – | – | – | – | CCCCCCCCCC/C=C/c1ccc2cc(CP(=O)(O)O)ccc2c1 [Compound 30a, (E)-6-Dodec-1-enyl-naphthalen-2-yl-methylphosphonic acid]
19.9 | 101 | 98.8 | – | – | – | – | CCCCCCCCCCCCc1ccc2cc(CP(=O)(O)O)ccc2c1 [Compound 34a, 6-Dodecylnaphthalen-2-yl-methylphosphonic acid]
50.8 | 100 | 94.7 | – | – | – | – | CCCCCCCCCCCCCc1ccc2cc(CP(=O)(O)O)ccc2c1 [Compound 34b, 6-Tridecylnaphthalen-2-yl-methylphosphonic acid]
